Patent US20240027453A1, “METHOD FOR DETECTION AND QUANTITATIVE MONITORING OF INFECTIONS WITH HERPESVIRUSES” (The Trustees of Princeton University, priority 2020, published 2024)
Like-named read-outs stand apart in the source and are kept apart here.

Tested on: HCMV
Format: cell-based
Method: In example herpesvirus PRM assay methods shown herein, cell pellets were lysed in 2% SDS, 100 mM NaCl, 0.5 mM EDTA, 50 mM Tris, pH 8.2, and 50 μg of protein was reduced and alkylated with 25 mM TCEP and 50 mM CAM respectively for 20 min at 70° C. Proteins were then precipitated via methanol chloroform precipitation (Wessel & Flugg, Anal Biochem. 138(1):141-143, 1984), resuspended in 50 mM HEPES, pH 8.2 and digested overnight with trypsin (50:1 protein:enzyme w/w ratio). Digested peptides were desalted by SDB-RPS StageTip as previously described (Lum et al., Cell Syst., 7(6):[…], 2018; Greco et al., Methods Mol Biol 1410:39-63, 2016; Federspiel & Cristea, Methods Mol Biol., 1977:115-143, 2019).
Peptides (1.0 μg on column) were analyzed by LC-MS/MS using a Dionex Ultimate 3000 UHPLC coupled online to an EASYSpray ion source and a Q Exactive HF. Peptides were separated on an EASYSpray C18 column (75 μm×25 cm) heated to 50° C. using a linear gradient of 5% B to 32% B over 60 min at a flow rate of 250 nL/min and were ionized at 1.7 kv. Mobile phase A consisted of 0.1% FA in H2O and mobile phase B consisted of 0.1% FA, 2.9% H2O in ACN.
The PRM method was controlled by a peptide inclusion list with retention time windows of 6 min for selected precursor ions.
The PRM assay was developed and analyzed using the open-source software Skyline (Maclean et al., Bioinformatics 26(7):966-968, 2010). Summed area under the curve of 3-4 transitions per peptide was used for quantitation. Targeted peptides were normalized to host protein loading control peptides. Peptide values for each sample were scaled to the average of each peptide across all runs. The average of multiple peptides was used as the inferred value for the protein measurement when more than one peptide was quantified (Federspiel et al., PLoS Biol. 17(9):e3000437. Doi: 10.1371/journal.pbio.3000437). PRM quantitation data were graphed using the Python Seaborn and Matplotlib libraries.
MRC5 primary human fibroblasts (HFs) (ATCC CCL-171) were used as the model system for HSV-1 and HCMV infections and were cultured in complete growth medium (DMEM supplemented with 10% fetal bovine serum and 1% penicillin-streptomycin antibiotics) at 37° C. and 5% CO2. iSLK.219 cells harboring latent KSHV (a gift from Dr. Britt Glaunsinger, University of California, Berkeley) were grown in complete growth medium supplemented with 500 μg/ml hygromycin (ThermoFisher Scientific, 10687010) at 37° C. and 5% CO2. All cells were used for experiments within a maximum of 10 passages.
Wild type HSV-1 strain 17+ (a gift from Beate Sodeik, Hannover Medical School, Hannover, Germany) was propagated as previously described (Diner et al., 2015). Briefly, PO stocks were generated by electroporating pBAC-HSV-1 into U-2 OS cells. […] In a similar manner, wild type HCMV strain AD169 was produced from BAC electroporation into HFs and working stocks were propagated by infecting HFs at a low level. In both cases, cell-associated virus was released by sonication, combined with supernatant virus, then concentrated by ultracentrifugation (20,000 rpm, 2 hours, 4° C. with SW28 swinging bucket rotor [Beckman Coulter]) over a 10% ficoll (HSV-1) or 20% sorbitol (HCMV) cushion. Virus stock titers were determined by plaque assay for HSV-1 or tissue culture infectious dose (TCID50) for HCMV and infections were performed at a multiplicity of infection (MOI) of 3.
12 hours prior to virus infection or reactivation, cells were treated with either the small molecule drug or DMSO/PBS control at an equivalent volume. […] For infection cycles lasting longer than 24 hours, small molecule drugs were re-added to the cell culture medium every 24 hours. Upon collection, cells were rinsed with PBS, scraped into a microcentrifuge tube, pelleted by centrifugation, and rinsed again with PBS.

In the case of `Nc1c(S(=O)(=O)c2ccccc2)c2nc3ccccc3nc2n1-c1ccc(F)cc1` [CAY10602], the “UL117 (P16770) protein level” value (timepoint 96, L) is reported as 0.3951, the “gH (P12824) protein level” value (timepoint 96, L) is reported as 0.2835 and the “gL (P16832) protein level” value (timepoint 96, L) is reported as 0.2623. The “gM (P16733) protein level” value (timepoint 96, L) was 0.2653, the “gN (P16795) protein level” value (timepoint 96, L) was 0.3 and the “IR10 (P16808) protein level” value (timepoint 96, LL) was 0.2057. The “IR12 (P16810) protein level” value (timepoint 96, LL) was 0.691, the “TRM3 (P16732) protein level” value (timepoint 96, LL) was 0.1638 and the “TRX1 (P16783) protein level” value (timepoint 96, LL) was 0.107. For the same molecule, the “TRX2 (P16728) protein level” value (timepoint 96, LL) was 0.1423, the “UL24 (P16760) protein level” value (timepoint 96, LL) was 0.2363 and the “UL40 (P16780) protein level” value (timepoint 96, LL) was 0.5384. The “UL47 (P16784) protein level” value (timepoint 96, LL) was 0.2331, the “UL49 (P16786) protein level” value (timepoint 96, LL) was 0.2651 and the “UL69 (P16749) protein level” value (timepoint 96, LL) was 0.3508. For the same molecule, the “UL70 (P17149) protein level” value (timepoint 96, LL) was 0.6104, the “UL83 (P06725) protein level” value (timepoint 96, LL) was 0.1002 and the “UL132 (P69338) protein level” value (timepoint 96, LL) was 0.23. The “US15 (P09718) protein level” value (timepoint 96, LL) was 0.4576, the “CVC2 (P16726) protein level” value (timepoint 120, DE) was 0.2864 and the “DBP (P17147) protein level” value (timepoint 120, DE) was 1.237. For the same molecule, the “HELI (P16736) protein level” value (timepoint 120, DE) was 0.9924, the “IR01 (P09710) protein level” value (timepoint 120, DE) was 0.5584 and the “NEC1 (P16794) protein level” value (timepoint 120, DE) was 0.2446. For the same molecule, the “NEC2 (P16791) protein level” value (timepoint 120, DE) was 0.5195, the “RIR1 (P16782) protein level” value (timepoint 120, DE) was 0.4577 and the “TRM1 (P16724) protein level” value (timepoint 120, DE) was 0.5809. For the same molecule, the “UL4 (P17146) protein level” value (timepoint 120, DE) was 0.3635, the “UL26 (P16762) protein level” value (timepoint 120, DE) was 0.7327 and the “UL32 (P08318) protein level” value (timepoint 120, DE) was 0.3617. The “UL34 (P16812) protein level” value (timepoint 120, DE) was 0.476, the “UL35 (P16766) protein level” value (timepoint 120, DE) was 0.2648 and the “UL38 (P16779) protein level” value (timepoint 120, DE) was 0.7917. The “UL44 (P16790) protein level” value (timepoint 120, DE) was 0.3691, the “UL48 (P16785) protein level” value (timepoint 120, DE) was 0.6239 and the “UL54 (P08546) protein level” value (timepoint 120, DE) was 1.076. The “UL71 (P16823) protein level” value (timepoint 120, DE) was 0.6451, the “UL78 (P16751) protein level” value (timepoint 120, DE) was 0.6099 and the “UL84 (P16727) protein level” value (timepoint 120, DE) was 0.5628. The “UL95 (P16801) protein level” value (timepoint 120, DE) was 0.6017, the “UL96 (P16787) protein level” value (timepoint 120, DE) was 0.8056 and the “UL97 (P16788) protein level” value (timepoint 120, DE) was 0.6064. For the same molecule, the “UL98 (P16789) protein level” value (timepoint 120, DE) was 0.7315, the “UL102 (P16827) protein level” value (timepoint 120, DE) was 1.128 and the “UL104 (P16735) protein level” value (timepoint 120, DE) was 0.5969. For the same molecule, the “UL112/UL113 (P17151) protein level” value (timepoint 120, DE) was 0.6787, the “UL114 (P16769) protein level” value (timepoint 120, DE) was 0.9011 and the “UL119/UL118 (P16739) protein level” value (timepoint 120, DE) was 0.9064. The “UL128 (P16837) protein level” value (timepoint 120, DE) was 0.537, the “US8 (P09730) protein level” value (timepoint 120, DE) was 0.7858 and the “US9 (P09729) protein level” value (timepoint 120, DE) was 0.8529. The “US12 (P09721) protein level” value (timepoint 120, DE) was 0.4687, the “US13 (P09720) protein level” value (timepoint 120, DE) was 0.889 and the “US14 (P09719) protein level” value (timepoint 120, DE) was 0.6652. The “US18 (P69334) protein level” value (timepoint 120, DE) was 1.01, the “US22 (P09722) protein level” value (timepoint 120, DE) was 0.7763 and the “US23 (P09701) protein level” value (timepoint 120, DE) was 0.7758. For the same molecule, the “US24 (P09700) protein level” value (timepoint 120, DE) was 0.8183, the “US34 (P09709) protein level” value (timepoint 120, DE) was 0.4168 and the “gB (P06473) protein level” value (timepoint 120, DE) was 0.6582. The “IRS1 (P09715) protein level” value (timepoint 120, IE) was 0.8786, the “TRS1 (P09695) protein level” value (timepoint 120, IE) was 0.7933 and the “UL13 (P16755) protein level” value (timepoint 120, IE) was 0.4263. The “UL36 (P16767) protein level” value (timepoint 120, IE) was 0.8112, the “UL37 (P16778) protein level” value (timepoint 120, IE) was 0.8715 and the “UL122 (P19893) protein level” value (timepoint 120, IE) was 0.4332. For the same molecule, the “UL123 (P13202) protein level” value (timepoint 120, IE) was 0.6795, the “CVC1 (P16799) protein level” value (timepoint 120, L) was 0.5173 and the “GO (P16750) protein level” value (timepoint 120, L) was 0.4236. For the same molecule, the “IR11 (P16809) protein level” value (timepoint 120, L) was 1.205, the “MCP (P16729) protein level” value (timepoint 120, L) was 0.4497 and the “SCP (Q7M6N6) protein level” value (timepoint 120, L) was 0.3169. The “TRM2 (P16792) protein level” value (timepoint 120, L) was 0.4883, the “UL22A (P16845) protein level” value (timepoint 120, L) was 0.9462 and the “UL25 (P16761) protein level” value (timepoint 120, L) was 0.5081. The “UL29 (P16764) protein level” value (timepoint 120, L) was 0.8148, the “UL30 (P16765) protein level” value (timepoint 120, L) was 0.4064 and the “UL31 (P16848) protein level” value (timepoint 120, L) was 0.5275. For the same molecule, the “UL43 (P16781) protein level” value (timepoint 120, L) was 0.2294, the “UL52 (P16793) protein level” value (timepoint 120, L) was 0.6161 and the “UL76 (P16725) protein level” value (timepoint 120, L) was 0.366. For the same molecule, the “UL79 (P16752) protein level” value (timepoint 120, L) was 0.3998, the “UL80 (P16753) protein level” value (timepoint 120, L) was 0.5912 and the “UL82 (P06726) protein level” value (timepoint 120, L) was 0.5561. The “UL87 (P16730) protein level” value (timepoint 120, L) was 0.3281, the “UL88 (P16731) protein level” value (timepoint 120, L) was 0.6339 and the “UL94 (P16800) protein level” value (timepoint 120, L) was 0.5803. The “UL99 (P13200) protein level” value (timepoint 120, L) was 0.4749, the “UL103 (P16734) protein level” value (timepoint 120, L) was 0.5208 and the “UL117 (P16770) protein level” value (timepoint 120, L) was 0.5442. For the same molecule, the “gH (P12824) protein level” value (timepoint 120, L) was 0.5849, the “gL (P16832) protein level” value (timepoint 120, L) was 0.5768 and the “gM (P16733) protein level” value (timepoint 120, L) was 0.6508. For the same molecule, the “gN (P16795) protein level” value (timepoint 120, L) was 0.6429, the “DUT (P16824) protein level” value (timepoint 120, LL) was 0.5447 and the “IR10 (P16808) protein level” value (timepoint 120, LL) was 0.4495. The “IR12 (P16810) protein level” value (timepoint 120, LL) was 0.797, the “TRM3 (P16732) protein level” value (timepoint 120, LL) was 0.383 and the “TRX1 (P16783) protein level” value (timepoint 120, LL) was 0.3398. The “TRX2 (P16728) protein level” value (timepoint 120, LL) was 0.4401, the “UL24 (P16760) protein level” value (timepoint 120, LL) was 0.5907 and the “UL40 (P16780) protein level” value (timepoint 120, LL) was 0.5612. For the same molecule, the “UL47 (P16784) protein level” value (timepoint 120, LL) was 0.5287, the “UL49 (P16786) protein level” value (timepoint 120, LL) was 0.5619 and the “UL69 (P16749) protein level” value (timepoint 120, LL) was 0.6101. The “UL70 (P17149) protein level” value (timepoint 120, LL) was 0.846, the “UL83 (P06725) protein level” value (timepoint 120, LL) was 0.4091 and the “UL132 (P69338) protein level” value (timepoint 120, LL) was 0.4011. For the same molecule, the “US15 (P09718) protein level” value (timepoint 120, LL) was 0.6187.
